# Experimental data taken from patent US5804592A, “Method for improving disturbed behavior and elevating mood in humans” (Unimed Pharmaceuticals, Inc., priority 1997, dated 1998).
# Entries after “also recorded” stand apart in the source; their conditions may differ.
# Columns and labels:
# [1] = Possible side effects determined every week by asking the primary caregivers (Table 2); assay type: in vivo, human
# Description: (§1) Each patient in the this example was diagnosed with "probable" DAT by a neurologist according to DSM III-R and NINCDS-ARDDA criteria. These generally accepted criteria include deficits in two or more areas of cognition, progressive worsening of memory and other cognitive functions, no disturbances of consciousness, and absence of systemic disorders or other brain disease that in and of themselves could account for the progressive deficits in memory and cognition. (McKhann et al., Neurology, 34: 939-944 (1984). Each patient received physical examination and laboratory examination including complete blood count with differential, liver function tests, thyroid function tests including TSH, iron binding capacity, BUN, creatinine, and electrolytes.
# (§2) A double blind placebo-controlled crossover design was used with each period of study lasting six weeks. Dronabinol or placebo was administered on a fixed dose schedule, 2.5 mg capsule or identically looking placebo capsule every morning and noon. Subjects were randomly assigned to placebo first or dronabinol first groups. Possible side effects were determined every week by asking the primary caregivers if the patient experienced any of a list of possible symptoms. A list of these symptoms observed in twelve patients over seventy weeks is identified in Table 2 below.
# [2] = Double blind placebo-controlled crossover study: Lawton Observed Affect Scale - Past (negative and positive affect); assay type: in vivo, human
# Description: as §1, §2
# (§3) Baseline measurements were taken the week prior to randomization and treatment initiation. Behavior measures were obtained weekly for the 12 week duration of the trial. Repeated measures on these variables were therefore available for six weeks on dronabinol and six weeks on placebo for each subject.
# Patients' affect was measured using Lawton Observed Affect Scale - Past (Lawton et al., J. Gerontol. [B], 51B: P3-14 (1996)). This scale consists of six items, three measuring positive affect (pleasure, interest and contentment) and three measuring negative affect (anger, anxiety/fear and depression/sadness) on a 5 point scale (from 1=never to 5=more than 3 time a day). The negative and positive affect scores were calculated by adding scores of the appropriate items.
# (§4) Statistical analysis was performed using Statistix 4.1 (Analytic Software). Repeated measures ANOVA for the 12 weeks of the study was done to test for effects of order, time and treatment on-study variables.
# [3] = AIDS patients, after dronabinol treatment; Gorter 1991, Beal 1995; cited from earlier work
# [4] = four compartment model; Agurell et al. 1986; cited from earlier work
# [5] = Use of as needed (PRN) psychoactive medication during the study; assay type: in vivo, human; settings: during dronabinol treatment; placebo administration 9.7
# Description: Eleven of the patients were on a psychoactive medication before the beginning of dronabinol study and were maintained on the same medication during the study period. Four patients were receiving regular doses of neuroleptics (perphenazine, thiothixene, haloperidol or thioridazine), 4 patients were receiving regular doses of benzodiazepienes (3 lorazepam and one alprazolam), and 8 patients were receiving regular doses of antidepressants. The antidepressants included sertraline (8 patients), trazodone (4 patients) and desipramine (1 patient). Three patients were on both sertraline and trazodone, and one patient was switched from trazodone to doxepin. Antidepressant treatment was initiated at least 4 weeks before the start of the study and the mean duration of antidepressant treatment before study initiation was 7 months. Eleven patients had orders for psychoactive medications as needed (PRN). These included lorazepam in 4 patients and alprazolam, trazodone, doxepin, haloperidol, perphenazine and thioridazine in one patient each. […]
# A double blind placebo-controlled crossover design was used with each period of study lasting six weeks. […] Possible side effects were determined every week by asking the primary caregivers if the patient experienced any of a list of possible symptoms. […]
# [6] = Double blind placebo-controlled crossover study: Cohen-Mansfield Agitation Inventory (CMAI), disturbed behavior; assay type: in vivo, human
# Description: as §1
# Eleven of the patients were on a psychoactive medication before the beginning of dronabinol study and were maintained on the same medication during the study period. Four patients were receiving regular doses of neuroleptics (perphenazine, thiothixene, haloperidol or thioridazine), 4 patients were receiving regular doses of benzodiazepienes (3 lorazepam and one alprazolam), and 8 patients were receiving regular doses of antidepressants. The antidepressants included sertraline (8 patients), trazodone (4 patients) and desipramine (1 patient). Three patients were on both sertraline and trazodone, and one patient was switched from trazodone to doxepin. Antidepressant treatment was initiated at least 4 weeks before the start of the study and the mean duration of antidepressant treatment before study initiation was 7 months. Eleven patients had orders for psychoactive medications as needed (PRN). These included lorazepam in 4 patients and alprazolam, trazodone, doxepin, haloperidol, perphenazine and thioridazine in one patient each. The patients received these medications very rarely, on the average 9.7 doses/6 weeks during the placebo administration and 7.2 doses/6 weeks during dronabinol treatment.
# as §2, §3
# The disturbed behavior was measured by the Cohen-Mansfield Agitation Inventory (CMAI)(Cohen-Mansfieldet al., J. Gerontol. Med. Sci., 44: M77-84 (1989)) which is a widely used instrument with good psychometric properties. Twenty nine items of this inventory are rated by frequency (from 1=never to 7=constantly or almost constantly) and by disruptiveness (from 1=not at all to 5=extremely). For each observation period, the total score was calculated by multiplying the frequency and disruptiveness of individual items and adding the products. The CMAI items observed are identified in Table 3 below.
# as §4
# [7] = cited from earlier work
# [8] = 12 patients, 2.5 mg capsule every morning and noon, six weeks
# [9] = seventy weeks observed, 2.5 mg capsule every morning and noon
# [10] = decrease during the 12 weeks study period (both phases), df=5,143
# [11] = dronabinol first vs placebo first, df=5,143
# [12] = repeated measures ANOVA, df=5,143
# [13] = repeated measures ANOVA, df=1,143
# [14] = repeated measures ANOVA, df=5,143, dronabinol/placebo crossover
structure (smiles),measurement,setting,value
"CCCCCc1cc(O)c2c(c1)OC(C)(C)[C@@H]1CCC(C)=C[C@@H]21 (relative stereo) [dronabinol, (6aR-trans)-6a,7,8,10a-tetrahydro-6,6,9-trimethyl-3-pentyl-6H-dibenzo[b,d]pyran-1-ol]","Anxiety/nervousness, percentage of total patients",[1]; [8],92%
same,"Ataxia, percentage of total patients",[1]; [8],16%
same,"Depression, percentage of total patients",[1]; [8],16%
same,"Diarrhea, percentage of total patients",[1]; [8],16%
same,"Emotional lability, percentage of total patients",[1]; [8],92%
same,"Euphoria, percentage of total patients",[1]; [8],58%
same,"Flushing, percentage of total patients",[1]; [8],8%
same,"Hallucination, percentage of total patients",[1]; [8],33%
same,"Headache, percentage of total patients",[1]; [8],8%
same,"Increased confusion, percentage of total patients",[1]; [8],8%
same,"Muscle pain, percentage of total patients",[1]; [8],16%
same,"Paranoid reaction, percentage of total patients",[1]; [8],33%
same,"Somnolence, percentage of total patients",[1]; [8],67%
same,"Sweating, percentage of total patients",[1]; [8],8%
same,"Tiredness, percentage of total patients",[1]; [8],75%
same,Incidence of seizure,[1]; dronabinol treated patient,one
same,"Euphoria as an adverse reaction, frequency vs placebo",[1]; dronabinol treatment vs placebo periods,reported more frequently and in more patients during the dronabinol treatment than during placebo periods
same,"Somnolence, frequency vs placebo",[1]; patients treated with dronabinol vs patients on placebo,twice as common
same,"Anxiety/nervousness, percentage of weeks",[1]; [9],53%
same,"Ataxia, percentage of weeks",[1]; [9],8%
same,"Depression, percentage of weeks",[1]; [9],6%
same,"Diarrhea, percentage of weeks",[1]; [9],4%
same,"Emotional lability, percentage of weeks",[1]; [9],46%
same,"Euphoria, percentage of weeks",[1]; [9],44%
same,"Flushing, percentage of weeks",[1]; [9],3%
same,"Hallucination, percentage of weeks",[1]; [9],16%
same,"Headache, percentage of weeks",[1]; [9],1%
same,"Increased confusion, percentage of weeks",[1]; [9],3%
same,"Muscle pain, percentage of weeks",[1]; [9],10%
same,"Paranoid reaction, percentage of weeks",[1]; [9],23%
same,"Somnolence, percentage of weeks",[1]; [9],41%
same,"Sweating, percentage of weeks",[1]; [9],3%
same,"Tiredness, percentage of weeks",[1]; [9],36%
same,"Negative affect score, F(time)",[2]; [10],2.46
same,"Negative affect score, p for F(time)",[2]; [10],0.045
same,"Positive affect score, change","[2]; dronabinol and placebo treatments, six weeks each",positive affect remained similar during both treatments; also recorded: did not change the Positive Affect
same,"Negative affect score, decrease by order of treatment",[2]; dronabinol first vs placebo first,"the decrease was greater for those who received dronabinol first, compared to those who received placebo first"
same,"Negative affect score, F(order×time)",[2]; [11],5.45
same,"Negative affect score, p for F(order×time)",[2]; [11],< 0.0005
same,"Negative affect score, change vs placebo periods",[2]; on dronabinol vs placebo periods,decreased more while patients were on dronabinol then during the placebo periods
same,"Negative affect score, F(time×treatment)",[2]; [12],3.98
same,"Negative affect score, p for F(time×treatment)",[2]; [12],0.004
same,Mood / sense of well-being,[3],elevated mood or sense of well-being
same,Initial half-life,[4],four
same,Terminal half-life,[4],25 to 36 h
same,"PRN psychoactive medication doses, average",[5],7.2 doses/6 weeks
same,"Disturbed behavior (CMAI score), change","[6]; during dronabinol treatment, 2.5 mg morning and noon, six weeks",Disturbed behavior decreased during dronabinol treatment
same,"Disturbed behavior (CMAI), persistence of decrease",[6]; placebo period following treatment with dronabinol,this decrease in disturbed behavior persisted during the placebo period following treatment with dronabinol; also recorded: carried over to the following placebo period
same,"CMAI score, F(order×treatment)",[6]; [13],2.78
same,"CMAI score, p for F(order×treatment)",[6]; [13],0.12
same,"CMAI score as percentage of the baseline, F(order×time)",[6]; [14],2.35
same,"CMAI score as percentage of the baseline, p for order×time interaction",[6]; [14],0.05
same,"Disturbed behavior, difference in the second treatment period",[6]; second treatment period of crossover,no difference in the disturbed behavior in the second treatment period
same,"Agitation (CMAI and Observed Affect Scale), change",[6]; two scales: CMAI and Observed Affect Scale,Decreased agitation
same,"Low levels of dronabinol metabolites detected in urine and feces, time","[7]; after initiation of a supervised abstinence, Dackis et al. 1982",2-5 weeks
same,"Presence of tetrahydrocannabinol metabolites in the urine, time after ingestion","[7]; urine, after ingestion of marijuana, Ellis et al. 1985",≤ 77 days
